{"source": "the OPERA property sets (Mansouri et al. 2018)", "data": [{"settings": "not given", "units": {"boiling point": "°C", "melting point": "°C"}, "values": [{"smiles": "C=CC(=O)OCCOCC", "boiling point": 174, "melting point": -47}, {"smiles": "CCCCCCCCCCCCCCCC(=O)CC", "melting point": 51}, {"smiles": "C=CCOCC", "boiling point": 67.6, "log10 vapour pressure (mmHg)": 2.18}, {"smiles": "CCCCCCCCCCCCCCCCCCCC(=O)OC", "melting point": 54.5}, {"smiles": "C(=C\\c1ccccc1)/c1ccccc1", "boiling point": 307, "log10 Koa": 7.48, "log10 vapour pressure (mmHg)": -2.61}, {"smiles": "CCOC(OCC)C(Cl)(Cl)Cl", "boiling point": 197}, {"smiles": "Ic1ccc(-c2ccccc2)cc1", "boiling point": 320, "melting point": 114}, {"smiles": "CC(C)=CCC/C(C)=C/C=C/C(C)=C/C=C/C(C)=C/C=C/C=C(C)/C=C/C=C(C)/C=C/C=C(\\C)CCC=C(C)C", "melting point": 175}, {"smiles": "CCCN(CCC)c1c([N+](=O)[O-])cc(C(C)C)cc1[N+](=O)[O-]", "log10 Koc (L/kg)": 4, "log10 vapour pressure (mmHg)": -4.52}, {"smiles": "CCCC[C@@H](O)CCC", "boiling point": 175, "log10 vapour pressure (mmHg)": -0.507}, {"smiles": "C=CCC#N", "boiling point": 119, "log10 vapour pressure (mmHg)": 1.27, "melting point": -87}, {"smiles": "Cc1cc(O)ccc1N=Nc1ccccc1", "melting point": 109}, {"smiles": "CCCCCCC(C)O", "note": "(racemic)", "boiling point": 179, "melting point": 3.5}, {"smiles": "O=Cc1ccc([N+](=O)[O-])o1", "boiling point": 228, "melting point": 35.5, "ready biodegradability": "readily biodegradable"}, {"smiles": "O=C(NC(=O)c1c(F)cccc1F)Nc1cc(Cl)c(OC(F)(F)C(F)F)c(Cl)c1", "melting point": 204}, {"smiles": "O=C(Cl)C(=O)Cl", "boiling point": 63.5, "melting point": -16}, {"smiles": "Cc1cccc(C)c1Cl", "boiling point": 186, "melting point": -35}, {"smiles": "C=CCN1CC[C@]23c4c5ccc(O)c4O[C@H]2[C@@H](O)C=C[C@H]3[C@H]1C5", "melting point": 208}, {"smiles": "C=C(Br)CC", "boiling point": 88, "melting point": -133}, {"smiles": "CC(C)=NN=C(C)C", "boiling point": 133, "melting point": -12.5}, {"smiles": "COc1c2c(cc3c1OCO3)CCN(C)C2", "melting point": 56}, {"smiles": "BrC1c2ccccc2-c2ccccc21", "melting point": 104}, {"smiles": "CCOC(C)(C)C", "boiling point": 73.1, "log10 Henry constant (atm·m³/mol)": -2.79, "log10 vapour pressure (mmHg)": 2.09, "melting point": -94}, {"smiles": "ClCc1ccc2ccccc2c1", "melting point": 48.5}, {"smiles": "CCOC(=O)C1CCCCC1", "boiling point": 196}, {"smiles": "Clc1ccccc1C(c1ccccc1)(c1ccccc1)n1ccnc1", "melting point": 148}, {"smiles": "CCC(=O)OCCC(C)C", "boiling point": 160}, {"smiles": "Oc1cccc(Br)c1", "boiling point": 236, "melting point": 33, "ready biodegradability": "not readily biodegradable"}, {"smiles": "CCCCCC#N", "boiling point": 164, "log10 Koa": 4.08, "log10 vapour pressure (mmHg)": 0.455, "melting point": -80.3}, {"smiles": "CC(C)COC(=O)Cc1ccccc1", "boiling point": 247}, {"smiles": "CCC(=O)CC", "boiling point": 102, "log10 Henry constant (atm·m³/mol)": -4.3, "log10 Koa": 3.2, "log10 vapour pressure (mmHg)": 1.58, "melting point": -39, "ready biodegradability": "readily biodegradable"}, {"smiles": "Cc1cc(O)c2c(c1)C(=O)c1cc(O)cc(O)c1C2=O", "melting point": 257}, {"smiles": "COc1cccc(O)c1", "boiling point": 244, "log10 Henry constant (atm·m³/mol)": -7.24, "log10 Koc (L/kg)": 1.5, "log10 vapour pressure (mmHg)": -1.71, "ready biodegradability": "readily biodegradable"}, {"smiles": "CN(C)c1ccc([N+](=O)[O-])cc1", "log10 vapour pressure (mmHg)": -5.22, "melting point": 164}, {"smiles": "COc1ccc2nc(N)sc2c1", "melting point": 166}, {"smiles": "N#CSc1ccccc1", "boiling point": 232}, {"smiles": "CCCCCCCCCCCCCCCCCC(=O)OC", "boiling point": 370, "log10 vapour pressure (mmHg)": -4.87, "melting point": 39.1}, {"smiles": "CCc1ccc(CC)c(CC)c1", "boiling point": 218}, {"smiles": "CC(F)(F)Cl", "boiling point": -9.7, "log10 Henry constant (atm·m³/mol)": -1.23, "log10 vapour pressure (mmHg)": 3.41, "melting point": -131}, {"smiles": "CC1=CCC(C(=O)O)C1(C)C", "note": "(stereo not given)", "boiling point": 242, "melting point": 40.5}, {"smiles": "CC[C@H](C(N)=O)[C@@H](C)CC", "melting point": 114}, {"smiles": "O=C1C=CC(=O)c2ccccc21", "melting point": 128, "ready biodegradability": "not readily biodegradable"}, {"smiles": "C=CCOC(=O)CCC", "boiling point": 142, "melting point": -80}, {"smiles": "C=CC[C@]1(O)CC[C@H]2[C@@H]3CCC4=CCCC[C@@H]4[C@H]3CC[C@@]21C", "melting point": 80}, {"smiles": "c1ccc(N2CCN(c3ccccc3)CC2)cc1", "melting point": 165}, {"smiles": "CCCCCC=CC=CC(=O)O", "melting point": 49.5}, {"smiles": "O=C(O)c1cc(Cl)c(Cl)cc1Cl", "melting point": 166}, {"smiles": "CC1CCCS1", "note": "(stereo not given)", "boiling point": 134, "melting point": -101}, {"smiles": "N#Cc1c(F)c(F)cc(F)c1F", "melting point": 34}, {"smiles": "CC1(c2ccc(Oc3ccccc3)cc2)OC(=O)N(Nc2ccccc2)C1=O", "note": "(stereo not given)", "log10 vapour pressure (mmHg)": -8.32, "melting point": 141}, {"smiles": "Cc1nc(C(F)(F)F)c(C(O)=Nc2c(Br)cc(OC(F)(F)F)cc2Br)s1", "melting point": 178}, {"smiles": "NC=S", "melting point": 26.5}, {"smiles": "CCC(Br)C(=O)OC", "note": "(stereo not given)", "boiling point": 168}, {"smiles": "CN1CC[C@]23CCCC[C@H]2[C@H]1Cc1ccc(O)cc13", "melting point": 198}, {"smiles": "CC(O)C(C)(C)CO", "note": "(stereo not given)", "boiling point": 208}, {"smiles": "NCCc1c[nH]c2ccccc12", "melting point": 118}, {"smiles": "CCC(C)(S(=O)(=O)CC)S(=O)(=O)CC", "melting point": 76}, {"smiles": "CC(C)C(=NO)C(C)C", "boiling point": 181, "melting point": 34}, {"smiles": "CC(=O)Nc1ccccc1F", "melting point": 78}, {"smiles": "COc1ccccc1N1CCNCC1", "melting point": 38.5}, {"smiles": "Cc1ccc(N)nc1", "boiling point": 227, "melting point": 76.5}, {"smiles": "CNc1ccc(NC)c2c1C(=O)c1ccccc1C2=O", "log10 vapour pressure (mmHg)": -10.7, "melting point": 220}, {"smiles": "CC(C)Nc1nc(Cl)nc(NC2CC2)n1", "log10 vapour pressure (mmHg)": -6.52, "melting point": 167}, {"smiles": "CCN(CC)c1ccc(/N=N/c2ccccc2)cc1", "log10 vapour pressure (mmHg)": -7.07, "melting point": 97.5}, {"smiles": "C=Cc1ccc(C(=O)O)cc1", "melting point": 144}, {"smiles": "CC(C)CCC(=O)O", "boiling point": 200, "melting point": -33}, {"smiles": "O=[N+]([O-])c1ccc(Cc2ccncc2)cc1", "melting point": 71}, {"smiles": "CCCCCCCCCCCCCCCCCCCl", "boiling point": 348, "log10 vapour pressure (mmHg)": -4.77, "melting point": 28.6}, {"smiles": "c1c[nH]cn1", "boiling point": 257, "melting point": 90.5, "ready biodegradability": "readily biodegradable"}, {"smiles": "COc1cc([N+](=O)[O-])ccc1N", "melting point": 141, "ready biodegradability": "not readily biodegradable"}, {"smiles": "O=C(c1ccccc1)C(F)(F)F", "boiling point": 153, "melting point": -40}, {"smiles": "CCCCCC/C=C\\CCCCCCCC(=O)O", "melting point": 0.2}, {"smiles": "O=C1C(=O)c2ccccc2C(Cl)=C1Cl", "melting point": 184}, {"smiles": "C[N+]1(CCC(O)(c2ccccc2)c2cccs2)CCOCC1.[I-]", "note": "(stereo not given)", "melting point": 190}, {"smiles": "Oc1c(Cl)cc(Cl)c(Cl)c1Cc1c(O)c(Cl)cc(Cl)c1Cl", "boiling point": 479, "melting point": 166, "ready biodegradability": "not readily biodegradable"}, {"smiles": "O=[N+]([O-])c1ccc(O)c(F)c1", "melting point": 121}, {"smiles": "O=C(NC(Cc1ccccc1)c1ccccc1)c1cccnc1", "note": "(stereo not given)", "melting point": 159}, {"smiles": "CCCCCC(=O)CCCCC", "boiling point": 228, "log10 vapour pressure (mmHg)": -1.3, "melting point": 14.5, "ready biodegradability": "readily biodegradable"}, {"smiles": "CC1CCOC(C)O1", "note": "(stereo not given)", "boiling point": 116}, {"smiles": "CCCC(C)C(C)CC", "note": "(stereo not given)", "boiling point": 141}, {"smiles": "CCCc1cccc(CCC)c1O", "boiling point": 256, "melting point": 27}, {"smiles": "C=CC#CC", "boiling point": 59.5}, {"smiles": "FC(F)(F)CCCl", "boiling point": 45.1, "melting point": -106}, {"smiles": "CC(=O)CC(C)(C)O", "boiling point": 168, "log10 vapour pressure (mmHg)": 0.233, "melting point": -44, "ready biodegradability": "readily biodegradable"}, {"smiles": "CCC(C)c1ccc(N)cc1", "note": "(stereo not given)", "boiling point": 238}, {"smiles": "Brc1c(Br)c(Br)c(Br)c(Br)c1Br", "melting point": 326, "ready biodegradability": "not readily biodegradable"}, {"smiles": "CC(=O)CCC=C(C)C", "boiling point": 174, "melting point": -67.1, "ready biodegradability": "readily biodegradable"}, {"smiles": "CN(C)C(O)=Nc1ccc(-n2nc(C(C)(C)C)oc2=O)c(Cl)c1", "melting point": 193}, {"smiles": "COP(=S)(OC)SCN1C(=O)c2ccccc2C1=O", "log10 Koc (L/kg)": 2.91, "log10 vapour pressure (mmHg)": -6.31, "melting point": 72}, {"smiles": "N=C(N)NC(=O)c1nc(Cl)c(N)nc1N", "melting point": 241}, {"smiles": "CC(C)(C)c1ccc(OC(=O)c2ccccc2O)cc1", "melting point": 62}, {"smiles": "S=C=Nc1cccc(Br)c1", "boiling point": 256}, {"smiles": "OCCC1CCCCC1", "boiling point": 208, "log10 vapour pressure (mmHg)": -0.78, "melting point": -20}, {"smiles": "CCC(C)(C)OC", "boiling point": 86.3, "log10 Henry constant (atm·m³/mol)": -2.88, "log10 vapour pressure (mmHg)": 1.88}, {"smiles": "NC(=O)C(N)=O", "log10 vapour pressure (mmHg)": -7.2}, {"smiles": "CCC(C)C(C)CC(C)C", "note": "(stereo not given)", "boiling point": 156}, {"smiles": "CC(CO)Oc1ccccc1", "note": "(stereo not given)", "boiling point": 244}, {"smiles": "c1ccc2c(c1)Sc1ccccc1N2CC1CN2CCC1CC2", "note": "(stereo not given)", "melting point": 130}, {"smiles": "N#Cc1cccc(C=O)c1", "boiling point": 210, "melting point": 76.5}, {"smiles": "CSCSC", "boiling point": 148}, {"smiles": "Cc1cc(C2(c3cc(C)c(O)c(Br)c3)OS(=O)(=O)c3ccccc32)cc(Br)c1O", "melting point": 242}, {"smiles": "CCCCCC(O)c1ccc(O)c(O)c1", "note": "(stereo not given)", "melting point": 109}, {"smiles": "CC(C)(C)c1ccc(N)cc1", "boiling point": 241, "melting point": 17}]}, {"settings": "fish", "values": [{"smiles": "Cc1c(Cl)c(Cl)c(C)c(Cl)c1Cl", "log10 BCF": 3.62, "log10 biotransformation half-life (days)": 1.12}, {"smiles": "COP(=S)(OC)Oc1ccc(S(C)=O)c(C)c1", "note": "(stereo not given)", "log10 BCF": 0.12, "log10 biotransformation half-life (days)": -0.38}, {"smiles": "Oc1cccc(Br)c1", "log10 BCF": 1.18, "log10 biotransformation half-life (days)": -0.95}, {"smiles": "Oc1c(Cl)cc(Cl)c(Cl)c1Cc1c(O)c(Cl)cc(Cl)c1Cl", "log10 BCF": 2.07}, {"smiles": "Brc1c(Br)c(Br)c(Br)c(Br)c1Br", "log10 BCF": 3, "log10 biotransformation half-life (days)": 0.43}, {"smiles": "COP(=S)(OC)SCN1C(=O)c2ccccc2C1=O", "log10 BCF": 0.26}]}]}
